# Experiments:
# K562 [1] = assay: Growth inhibition of human K562 cells incubated for 48 hrs by sulforhodamine B assay; type: functional, cell-based; conditions: K562, 48 h
# HOP-62 [2] = assay: Growth inhibition of human HOP62 cells incubated for 48 hrs by sulforhodamine B assay; type: functional, cell-based; conditions: HOP-62, 48 h
# HT-29 [3] = assay: Growth inhibition of human HT-29 cells incubated for 48 hrs by sulforhodamine B assay; type: functional, cell-based; conditions: HT-29, 48 h
# A498 [4] = assay: Growth inhibition of human A498 cells incubated for 48 hrs by sulforhodamine B assay; type: functional, cell-based; conditions: A498, 48 h
# PC-3 [5] = assay: Growth inhibition of human PC3 cells incubated for 48 hrs by sulforhodamine B assay; type: functional, cell-based; conditions: PC-3, 48 h
# SR [6] = assay: Growth inhibition of human SR cells assessed as cell growth at 0.01 uM incubated for 48 hrs by sulforhodamine B assay relative to control; type: functional; conditions: read-out: Activity
# A549 [7] = assay: Growth inhibition of human A549/ATCC cells assessed as cell growth at 0.01 uM incubated for 48 hrs by sulforhodamine B assay relative to control; type: functional; conditions: A549, 48 h, read-out: Activity
# HOP-62 [8] = assay: Growth inhibition of human HOP62 cells assessed as cell growth at 0.01 uM incubated for 48 hrs by sulforhodamine B assay relative to control; type: functional; conditions: HOP-62, 48 h, read-out: Activity
# NCI-H23 = assay: Growth inhibition of human NCI-H23 cells assessed as cell growth at 0.01 uM incubated for 48 hrs by sulforhodamine B assay relative to control; type: functional; conditions: NCI-H23, 48 h, read-out: Activity
# SK-MEL-5 = assay: Growth inhibition of human SK-MEL-5 cells assessed as cell growth at 0.01 uM incubated for 48 hrs by sulforhodamine B assay relative to control; type: functional; conditions: SK-MEL-5, 48 h, read-out: Activity
# ACHN = assay: Growth inhibition of human ACHN cells assessed as cell growth at 0.01 uM incubated for 48 hrs by sulforhodamine B assay relative to control; type: functional; conditions: read-out: Activity
# SN12C = assay: Growth inhibition of human SN12C cells assessed as cell growth at 0.01 uM incubated for 48 hrs by sulforhodamine B assay relative to control; type: functional; conditions: read-out: Activity
# PC-3 [9] = assay: Growth inhibition of human PC3 cells assessed as cell growth at 0.01 uM incubated for 48 hrs by sulforhodamine B assay relative to control; type: functional; conditions: PC-3, 48 h, read-out: Activity
# HT-29 [10] = assay: Growth inhibition of human HT-29 cells assessed as cell growth at 0.1 uM incubated for 48 hrs by sulforhodamine B assay relative to control; type: functional; conditions: HT-29, 48 h, read-out: Activity
# SF-268 = assay: Growth inhibition of human SF268 cells assessed as cell growth at 0.1 uM incubated for 48 hrs by sulforhodamine B assay relative to control; type: functional; conditions: SF-268, 48 h, read-out: Activity
# OVCAR-4 [11] = assay: Growth inhibition of human OVCAR4 cells assessed as cell growth at 0.1 uM incubated for 48 hrs by sulforhodamine B assay relative to control; type: functional; conditions: OVCAR-4, 48 h, read-out: Activity
# MDA-MB-231 [12] = assay: Growth inhibition of human MDA-MB-231 cells assessed as cell growth at 0.1 uM incubated for 48 hrs by sulforhodamine B assay relative to control; type: functional; conditions: MDA-MB-231, 48 h, read-out: Activity
# K562 [13] = assay: Growth inhibition of human K562 cells assessed as cell growth at 1 uM incubated for 48 hrs by sulforhodamine B assay relative to control; type: functional; conditions: K562, 48 h, read-out: Activity
# NCI-H226 = assay: Growth inhibition of human NCI-H226 cells assessed as cell growth at 1 uM incubated for 48 hrs by sulforhodamine B assay relative to control; type: functional; conditions: NCI-H226, 48 h, read-out: Activity
# KM12 = assay: Growth inhibition of human KM12 cells assessed as cell growth at 1 uM incubated for 48 hrs by sulforhodamine B assay relative to control; type: functional; conditions: KM12, 48 h, read-out: Activity
# LOX IMVI = assay: Growth inhibition of human LOXIMVI cells assessed as cell growth at 1 uM incubated for 48 hrs by sulforhodamine B assay relative to control; type: functional; conditions: read-out: Activity
# OVCAR-4 [14] = assay: Growth inhibition of human OVCAR4 cells assessed as cell growth at 1 uM incubated for 48 hrs by sulforhodamine B assay relative to control; type: functional; conditions: OVCAR-4, 48 h, read-out: Activity
# SK-OV-3 = assay: Growth inhibition of human SKOV3 cells assessed as cell growth at 1 uM incubated for 48 hrs by sulforhodamine B assay relative to control; type: functional; conditions: SK-OV-3, 48 h, read-out: Activity
# A498 [15] = assay: Growth inhibition of human A498 cells assessed as cell growth at 1 uM incubated for 48 hrs by sulforhodamine B assay relative to control; type: functional; conditions: A498, 48 h, read-out: Activity
# MDA-MB-231 [16] = assay: Growth inhibition of human MDA-MB-231 cells assessed as cell growth at 1 uM incubated for 48 hrs by sulforhodamine B assay relative to control; type: functional; conditions: MDA-MB-231, 48 h, read-out: Activity
# SR [17] = assay: Growth inhibition of human SR cells assessed as cell growth at 100 uM incubated for 48 hrs by sulforhodamine B assay relative to control; type: functional; conditions: read-out: Activity
# A549 [18] = assay: Growth inhibition of human A549/ATCC cells assessed as cell growth at 100 uM incubated for 48 hrs by sulforhodamine B assay relative to control; type: functional; conditions: A549, 48 h, read-out: Activity
# Malme-3M = assay: Growth inhibition of human MALME-3M cells assessed as cell growth at 100 uM incubated for 48 hrs by sulforhodamine B assay relative to control; type: functional; conditions: read-out: Activity
# OVCAR-3 = assay: Growth inhibition of human OVCAR3 cells assessed as cell growth at 100 uM incubated for 48 hrs by sulforhodamine B assay relative to control; type: functional; conditions: OVCAR-3, 48 h, read-out: Activity
# OVCAR-5 = assay: Growth inhibition of human OVCAR5 cells assessed as cell growth at 100 uM incubated for 48 hrs by sulforhodamine B assay relative to control; type: functional; conditions: OVCAR-5, 48 h, read-out: Activity
# OVCAR-8 = assay: Growth inhibition of human OVCAR8 cells assessed as cell growth at 100 uM incubated for 48 hrs by sulforhodamine B assay relative to control; type: functional; conditions: OVCAR-8, 48 h, read-out: Activity
# [19] = read-out: LC50 (the source's name)
# [20] = read-out: pLC50 (the source's name) (converted)
smiles,measurement,setting,value
COc1cc(Cl)cc(-c2nn(-c3cccc(NC(=O)c4ccc(N5CCOCC5)c(C(F)(F)F)c4)c3)cc2-c2ccncc2)c1,GI50,K562 [1]; read-out: GI50,3.1 µM
same,LC50,K562 [1]; read-out: LC50,> 100 µM
same,TGI,K562 [1]; read-out: TGI,> 100 µM
same,GI50,K562 [1]; read-out: pGI50 (converted),3.09 µM
same,LC50,K562 [1]; read-out: pLC50 (converted),> 100 µM
same,TGI,K562 [1]; read-out: pTGI (converted),> 100 µM
same,GI50,HOP-62 [2]; read-out: GI50,6.78 µM
same,CC50,HOP-62 [2]; [19],> 100 µM
same,TGI,HOP-62 [2]; read-out: TGI,> 100 µM
same,GI50,HOP-62 [2]; read-out: pGI50 (converted),63.1 µM
same,CC50,HOP-62 [2]; [20],> 100 µM
same,TGI,HOP-62 [2]; read-out: pTGI (converted),> 100 µM
same,GI50,HT-29 [3]; read-out: GI50,4 µM
same,CC50,HT-29 [3]; [19],> 100 µM
same,TGI,HT-29 [3]; read-out: TGI,38 µM
same,GI50,HT-29 [3]; read-out: pGI50 (converted),4.07 µM
same,CC50,HT-29 [3]; [20],> 100 µM
same,TGI,HT-29 [3]; read-out: pTGI (converted),38 µM
same,GI50,A498 [4]; read-out: GI50,1.52 µM
same,CC50,A498 [4]; [19],> 100 µM
same,TGI,A498 [4]; read-out: TGI,> 100 µM
same,GI50,A498 [4]; read-out: pGI50 (converted),16.2 µM
same,CC50,A498 [4]; [20],> 100 µM
same,TGI,A498 [4]; read-out: pTGI (converted),> 100 µM
same,IC50,PC-3 [5],3.3 µM
same,GI50,PC-3 [5]; read-out: GI50,3.3 µM
same,CC50,PC-3 [5]; [19],> 100 µM
same,TGI,PC-3 [5]; read-out: TGI,> 100 µM
same,GI50,PC-3 [5]; read-out: pGI50 (converted),3.31 µM
same,CC50,PC-3 [5]; [20],> 100 µM
same,TGI,PC-3 [5]; read-out: pTGI (converted),> 100 µM
same,growth at 0.01 µM,SR [6],96%
same,growth at 0.01 µM,A549 [7],103%
same,growth at 0.01 µM,HOP-62 [8],104%
same,growth at 0.01 µM,NCI-H23,92%
same,growth at 0.01 µM,SK-MEL-5,97%
same,growth at 0.01 µM,ACHN,100%
same,growth at 0.01 µM,SN12C,97%
same,growth at 0.01 µM,PC-3 [9],97%
same,growth at 0.1 µM,HT-29 [10],93%
same,growth at 0.1 µM,SF-268,94%
same,growth at 0.1 µM,OVCAR-4 [11],103%
same,growth at 0.1 µM,MDA-MB-231 [12],97%
same,growth at 1 µM,K562 [13],91%
same,growth at 1 µM,NCI-H226,54%
same,growth at 1 µM,KM12,52%
same,growth at 1 µM,LOX IMVI,95%
same,growth at 1 µM,OVCAR-4 [14],94%
same,growth at 1 µM,SK-OV-3,103%
same,growth at 1 µM,A498 [15],55%
same,growth at 1 µM,MDA-MB-231 [16],78%
same,growth at 100 µM,SR [17],4%
same,growth at 100 µM,A549 [18],25%
same,growth at 100 µM,Malme-3M,23%
same,growth at 100 µM,OVCAR-3,44%
same,growth at 100 µM,OVCAR-5,38%
same,growth at 100 µM,OVCAR-8,32%
COc1cc(Cl)cc(-c2nn(-c3cccc(NC(=O)Nc4cccc(C(F)(F)F)c4)c3)cc2-c2ccncc2)c1,GI50,K562 [1]; read-out: GI50,0.823 µM
same,LC50,K562 [1]; read-out: LC50,> 100 µM
same,TGI,K562 [1]; read-out: TGI,14.4 µM
same,GI50,K562 [1]; read-out: pGI50 (converted),0.832 µM
same,LC50,K562 [1]; read-out: pLC50 (converted),> 100 µM
same,TGI,K562 [1]; read-out: pTGI (converted),14.5 µM
same,GI50,HOP-62 [2]; read-out: GI50,2.51 µM
same,CC50,HOP-62 [2]; [19],> 100 µM
same,TGI,HOP-62 [2]; read-out: TGI,13.1 µM
same,GI50,HOP-62 [2]; read-out: pGI50 (converted),2.82 µM
same,CC50,HOP-62 [2]; [20],> 100 µM
same,TGI,HOP-62 [2]; read-out: pTGI (converted),13.2 µM
same,GI50,HT-29 [3]; read-out: GI50,1.51 µM
same,CC50,HT-29 [3]; [19],25.1 µM
same,TGI,HT-29 [3]; read-out: TGI,52.4 µM
same,GI50,HT-29 [3]; read-out: pGI50 (converted),1.51 µM
same,CC50,HT-29 [3]; [20],26.3 µM
same,TGI,HT-29 [3]; read-out: pTGI (converted),6.31 µM
same,GI50,A498 [4]; read-out: GI50,2.25 µM
same,CC50,A498 [4]; [19],> 100 µM
same,TGI,A498 [4]; read-out: TGI,25.5 µM
same,GI50,A498 [4]; read-out: pGI50 (converted),2.24 µM
same,CC50,A498 [4]; [20],> 100 µM
same,TGI,A498 [4]; read-out: pTGI (converted),25.7 µM
same,IC50,PC-3 [5],0.42 µM
same,GI50,PC-3 [5]; read-out: GI50,0.417 µM
same,CC50,PC-3 [5]; [19],> 100 µM
same,TGI,PC-3 [5]; read-out: TGI,32 µM
same,GI50,PC-3 [5]; read-out: pGI50 (converted),0.417 µM
same,CC50,PC-3 [5]; [20],> 100 µM
same,TGI,PC-3 [5]; read-out: pTGI (converted),3.24 µM
same,growth at 0.01 µM,SR [6],89%
same,growth at 0.01 µM,A549 [7],100%
same,growth at 0.01 µM,HOP-62 [8],96%
same,growth at 0.01 µM,NCI-H23,97%
same,growth at 0.01 µM,SK-MEL-5,96%
same,growth at 0.01 µM,ACHN,108%
same,growth at 0.01 µM,SN12C,101%
same,growth at 0.01 µM,PC-3 [9],91%
same,growth at 0.1 µM,HT-29 [10],95%
same,growth at 0.1 µM,SF-268,94%
same,growth at 0.1 µM,OVCAR-4 [11],98%
same,growth at 0.1 µM,MDA-MB-231 [12],103%
same,growth at 1 µM,K562 [13],45%
same,growth at 1 µM,NCI-H226,77%
same,growth at 1 µM,KM12,38%
same,growth at 1 µM,LOX IMVI,72%
same,growth at 1 µM,OVCAR-4 [14],71%
same,growth at 1 µM,SK-OV-3,103%
same,growth at 1 µM,A498 [15],75%
same,growth at 1 µM,MDA-MB-231 [16],71%
same,growth at 100 µM,SR [17],-30%
same,growth at 100 µM,A549 [18],-24%
same,growth at 100 µM,Malme-3M,-26%
same,growth at 100 µM,OVCAR-3,-41%
same,growth at 100 µM,OVCAR-5,-13%
same,growth at 100 µM,OVCAR-8,-43%

# From ChEMBL document CHEMBL4308841, “Synthesis, in vitro antiproliferative activity, and kinase inhibitory effects of pyrazole-containing diarylureas and diarylamides” (Eur J Med Chem, 2018)
